The values below are quoted from earlier work in patent publication US20190320628A1, “A NON-HUMAN ANIMAL MODEL OF NEURODEGENERATIVE DISORDERS” (priority 2016, published 2019).

One series has as its system Wistar rats. The following applies: KA alone.
The next series has as its system rats. The conditions noted are these: initial KA dose 5 mg/kg i.p., subsequent doses tailored.
The test system of the next series is animals. The conditions noted are these: KA used to model human epilepsy, SE/cSE-based models.

Consider `C=C(C)[C@H]1CN[C@H](C(=O)O)[C@H]1CC(=O)O` [KA, kainic acid], for which the “Non-responders among the surviving animals” value in the series with Wistar rats is recorded as 20-40%. Besides, the Mortality result in the series with Wistar rats (SE terminated by diazepam) is reported as “up to 30%”. The Mortality rate entry in the series on rats is “around 15%”. In the series with animals, the Mortality entry is given as “up to 50%” and the “Non-responders (surviving animals that never exhibit spontaneous seizures)” value is given as “up to 50%”.
